The target of the assay is T1, RORγ-LBD (Homo sapiens, UniProt P51449).
T1 construct: made in house; host or cells: SF9 cells (baculovirus); used as diluted lysate
T1 sequence (P51449 269-508 limits assumed): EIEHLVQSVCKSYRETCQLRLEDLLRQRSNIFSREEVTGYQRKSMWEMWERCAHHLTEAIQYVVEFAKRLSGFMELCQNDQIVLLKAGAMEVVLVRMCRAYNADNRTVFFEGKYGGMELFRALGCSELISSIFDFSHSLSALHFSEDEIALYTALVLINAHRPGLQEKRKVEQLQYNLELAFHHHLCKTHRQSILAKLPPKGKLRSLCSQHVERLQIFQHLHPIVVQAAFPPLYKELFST
The experiment in a line: RORγ-Ligand Binding Domain (LBD) TR-FRET Assay.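 For TR-FRET Assay Max Response: 665/615 nm signal ratio set to 100 without ursolic acid or test compound.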 It counts as biochemical. The protocol: Assay procedures and results are described below.
HIS-tagged RORγ-LBD protein was expressed in SF9 cells using a baculovirus expression system. The lysate was diluted in assay buffer (50 mM Tris pH 7.0, 50 mM KCl, 1 mM EDTA, 0.1 mM DTT, 0.01% BSA) to obtain RORγ-LBD final concentration of ˜3 nM in a 384-well assay plate (need to titrate for each batch of protein).
A stock of biotinylated-LXXLL peptide from coactivator SRC1 (Biotin-[…]) was prepared in assay buffer and added to each well (200 nM final concentration). […] RORγ antagonist ursolic acid was also included at a final concentration of 2 μM. Compounds were diluted in DMSO and further diluted in assay buffer with a final DMSO concentration at 1%.

[1] abbreviates: with 2 μM ursolic acid (RORγ antagonist), highest test concentration 10 μM.

As to `O=C(O)C1Cc2ccc(OCc3ccc4ccccc4c3)cc2N(S(=O)(=O)c2cccc(C(F)(F)F)c2)C1` (stereo not drawn), the EC50 (in general, the concentration at which the effect is half-maximal) under setting [1] is above 10000 nM. In turn, `CC(C)(C)c1ccc(COc2ccc3c(c2)N(S(=O)(=O)c2cccc(C(F)(F)F)c2)CC(C(=O)O)C3)cc1` (stereo not drawn) had an EC50 under setting [1] above 10000 nM. `O=C(O)C1Cc2ccc(OCc3ccc(C(F)(F)F)c(F)c3)cc2N(S(=O)(=O)c2cccc(C(F)(F)F)c2)C1` (stereo not drawn) showed a 50% effective concentration (EC50) under setting [1] of 5000 to 10000 nM.

As for `Cc1ccc(COc2ccc3c(c2)N(S(=O)(=O)c2cccc(C(F)(F)F)c2)CC(C(=O)O)C3)cc1F` (stereo not drawn), the EC50 under setting [1] is above 10000 nM.

The compound `O=C(O)C1Cc2ccc(OCc3c(Cl)cccc3Cl)cc2N(S(=O)(=O)c2cccc(C(F)(F)F)c2)C1` (stereo not drawn) came in with an EC50 under setting [1] below 500 nM.

For the compound `O=C(O)C1Cc2ccc(OCc3cc(F)ccc3Cl)cc2N(S(=O)(=O)c2cccc(C(F)(F)F)c2)C1` (stereo not drawn), the EC50 under setting [1] was below 500 nM.

Compound `O=C(O)C1Cc2ccc(OCc3cc(C(F)(F)F)ccc3F)cc2N(S(=O)(=O)c2cccc(C(F)(F)F)c2)C1` (stereo not drawn) returned an EC50 under setting [1] below 500 nM. Compound `O=C(O)C1Cc2ccc(OCc3ccccc3F)cc2N(S(=O)(=O)c2cccc(C(F)(F)F)c2)C1` (stereo not drawn) returned an EC50 under setting [1] below 500 nM. The compound `O=C(O)C[C@H]1CN(S(=O)(=O)c2cccc(C(F)(F)F)c2)c2cc(NCc3c(F)cccc3Cl)ccc2O1` yielded an EC50 under setting [1] below 500 nM. In turn, `CCn1cc(S(=O)(=O)N2C[C@H](CNC(C)=O)Nc3ccc(NCc4c(F)cccc4Cl)cc32)c(Cl)n1` registered an EC50 under setting [1] below 500 nM. `CC(=O)NC[C@H]1CN(S(=O)(=O)c2cccc(C(F)(F)F)c2)c2cc(NCc3c(F)cccc3Cl)ccc2O1`: the EC50 under setting [1] was below 500 nM. Compound `COC(=O)C[C@H]1CN(S(=O)(=O)c2cccc(C(F)(F)F)c2)c2cc(NCc3c(F)cccc3Cl)ccc2O1` showed an EC50 under setting [1] below 500 nM. `O=C(O)C1Cc2ccc(OCc3c(F)cccc3C(F)(F)F)cc2N(S(=O)(=O)c2cccc(C(F)(F)F)c2)C1` (stereo not drawn) had an EC50 under setting [1] below 500 nM. Still for that read-out and setting: in the case of `CCn1cc(S(=O)(=O)N2CC(C(=O)O)Cc3ccc(/C=C(\C)c4c(F)cccc4Cl)cc32)c(Cl)n1` (stereo not drawn) it was below 500 nM. The same measure, in the same setting: in the case of `Cc1nn(C(F)F)cc1S(=O)(=O)N1CC(C(=O)O)Cc2ccc(OCc3c(F)cccc3Cl)cc21` (stereo not drawn) it was 500 to 5000 nM; in that of `COc1cc(S(=O)(=O)N2CC(C(=O)O)Cc3ccc(OCc4c(F)cccc4Cl)cc32)ccc1F` (stereo not drawn), below 500 nM; in that of `CCn1cc(S(=O)(=O)N2CC(C(=O)O)Oc3ccc(OCc4c(F)cccc4Cl)cc32)c(Cl)n1` (stereo not drawn), below 500 nM.

`CCOc1nn(CC)cc1S(=O)(=O)N1CC(CO)Cc2ccc(OCc3c(F)cccc3Cl)cc21` (stereo not drawn) gave a half-maximal effective concentration (EC50) under setting [1] below 500 nM. With `COc1cc(S(=O)(=O)N2CC(CO)Cc3ccc(OCc4c(F)cccc4Cl)cc32)ccc1F` (stereo not drawn), the 50% effective concentration (EC50) under setting [1] is below 500 nM. Under setting [1], `O=S(=O)(c1cccc(C(F)(F)F)c1)N1CC(CO)Cc2ccc(OCc3c(F)cccc3Cl)cc21` (stereo not drawn) showed a 50% effective concentration (EC50) below 500 nM.

Turning to `COc1cc(S(=O)(=O)N2c3cc(OCc4c(F)cccc4Cl)ccc3C[C@@H](C(=O)O)[C@H]2C)ccc1F` (racemic) [Example 21, (2R,3R)-7-((2-Chloro-6-fluorobenzyl)oxy)-1-((4-fluoro-3-methoxyphenyl)sulfonyl)-2-methyl-1,2,3,4-tetrahydroquinoline-3-carboxylic acid], the concentration giving a half-maximal response (EC50) (RORγ-LBD TR-FRET) was below 500 nM. Where the note is “RORγ-LBD TR-FRET”, `COc1cc(S(=O)(=O)N2CCCc3ccc(O[C@@H]4c5ccccc5C[C@@H]4C)cc32)ccc1F` (relative stereo) [Example 25D, 1-((4-fluoro-3-methoxyphenyl)sulfonyl)-7-(((cis)-2-methyl-2,3-dihydro-1H-inden-1-yl)oxy)-1,2,3,4-tetrahydroquinoline] showed an EC50 below 500 nM. For `CCOC(=O)C(C)(C)CC1C[C@H](S(=O)(=O)c2cccc(C(F)(F)F)c2)c2cc(/C=C(\C)c3c(F)cccc3Cl)ccc2O1` (stereo in doubt) [Example 186L, ethyl 3-((2S,4S)-6-((E)-2-(2-chloro-6-fluorophenyl)prop-1-en-1-yl)-4-((3-(trifluoromethyl)phenyl)-sulfonyl)chroman-2-yl)-2,2-dimethylpropanoate], the EC50 (RORγ-LBD TR-FRET assay) is below 500 nM. For the same compound, the “TR-FRET Assay Max Response” value (RORγ-LBD TR-FRET assay, maximum response) is listed as “*** (a value in the range of greater than 150 to 200)”.

The compound `Cc1nn(C(F)F)cc1S(=O)(=O)N1CC(CO)Cc2ccc(OCc3c(F)cccc3Cl)cc21` (stereo not drawn) [Example 9D] registered an EC50 (RORγ-LBD TR-FRET) below 500 nM. For `CCOC(=O)C1Cc2ccc(OCc3c(F)cccc3Cl)cc2N(S(=O)(=O)c2cn(CC)nc2Cl)C1` (stereo not drawn) [Example 9E, ethyl 1-((3-chloro-1-ethyl-1H-pyrazol-4-yl)sulfonyl)-7-((2-chloro-6-fluorobenzyl)oxy)-1,2,3,4-tetrahydroquinoline-3-carboxylate], for the setting “RORγ-LBD TR-FRET”, the concentration giving a half-maximal response (EC50) was below 500 nM. For the compound `COc1cc(S(=O)(=O)N2CCCc3ccc(OCc4c(F)cccc4Cl)cc32)ccc1F` [Example 24, 7-((2-Chloro-6-fluorobenzyl)oxy)-1-((4-fluoro-3-methoxyphenyl)sulfonyl)-1,2,3,4-tetrahydroquinoline], the concentration for a half-maximal effect (EC50) (RORγ-LBD TR-FRET) was below 500 nM. `COc1cc(S(=O)(=O)N2CCCc3ccc(O[C@H]4CCc5ccccc54)cc32)ccc1F` [Example 25A, (S)-7-((2,3-dihydro-1H-inden-1-yl)oxy)-1-((4-fluoro-3-methoxyphenyl)sulfonyl)-1,2,3,4-tetrahydroquinoline] returned a concentration giving a half-maximal response (EC50) (RORγ-LBD TR-FRET) below 500 nM. Consider `COc1cc(S(=O)(=O)N2CCCc3ccc(O[C@@H]4CCc5ccccc54)cc32)ccc1F` [Example 25B, (R)-7-((2,3-dihydro-1H-inden-1-yl)oxy)-1-((4-fluoro-3-methoxyphenyl)sulfonyl)-1,2,3,4-tetrahydroquinoline], for which the EC50 (RORγ-LBD TR-FRET) is below 500 nM.

Regarding `O=S(=O)(c1cccc(C(F)(F)F)c1)N1CCCc2cc(OCc3ccccc3)ccc21` [Example 25K, 6-(benzyloxy)-1-((3-(trifluoromethyl)phenyl)sulfonyl)-1,2,3,4-tetrahydroquinoline], the concentration for a half-maximal effect (EC50) (RORγ-LBD TR-FRET) is below 500 nM. Under “RORγ-LBD TR-FRET”, `O=S(=O)(c1cccc(C(F)(F)F)c1)N1CCCc2cc(OC3CCCCC3)ccc21` [Example 25L, 6-(cyclohexyloxy)-1-((3-(trifluoromethyl)phenyl)sulfonyl)-1,2,3,4-tetrahydroquinoline] showed a half-maximal effective concentration (EC50) below 500 nM. On the same count and under the same terms, in the case of `O=S(=O)(c1cccc(C(F)(F)F)c1)N1CCCc2cc(OCC3CCCCC3)ccc21` [Example 25M, 6-(cyclohexylmethoxy)-1-((3-(trifluoromethyl)phenyl)sulfonyl)-1,2,3,4-tetrahydroquinoline] it was below 500 nM; in that of `O=S(=O)(c1cccc(C(F)(F)F)c1)N1CCCc2cc(OCCc3ccccc3)ccc21` [Example 25N, 6-phenethoxy-1-((3-(trifluoromethyl)phenyl)sulfonyl)-1,2,3,4-tetrahydroquinoline], below 500 nM. As to `COc1cc(S(=O)(=O)N2CCCc3cc(OCc4c(F)cccc4Cl)ccc32)ccc1F` [Example 25O, 6-((2-chloro-6-fluorobenzyl)oxy)-1-((4-fluoro-3-methoxyphenyl)sulfonyl)-1,2,3,4-tetrahydroquinoline], the EC50 (RORγ-LBD TR-FRET) was below 500 nM. Compound `COc1cc(S(=O)(=O)N2CCCc3ccc(OCc4c(Cl)cccc4C4CC4)cc32)ccc1F` [Example 25S, 7-((2-chloro-6-cyclopropylbenzyl)oxy)-1-((4-fluoro-3-methoxyphenyl)sulfonyl)-1,2,3,4-tetrahydroquinoline] returned an EC50 (RORγ-LBD TR-FRET) below 500 nM. In the case of `COc1cc(S(=O)(=O)N2CCCc3ccc(OCc4c(F)cccc4C4CC4)cc32)ccc1F` [Example 25T, 7-((2-cyclopropyl-6-fluorobenzyl)oxy)-1-((4-fluoro-3-methoxyphenyl)sulfonyl)-1,2,3,4-tetrahydroquinoline], for the setting “RORγ-LBD TR-FRET”, the EC50 was below 500 nM.
